Tested on: ligands in breast tumor cell lysates
Experiment: Ligand fishing from cell lysates with PSMGFR peptide on NTA-Ni beads, silver-stained gel
Type: binding, human
Method: In an effort to identify ligands to the MUC1 receptor, synthetic, His-var-PSMGFR peptides, […] (SEQ ID NO: 2), which is representative of the portion of the MUC1 receptor, that remains attached to the cell surface after cleavage of the interchain binding region, were loaded onto NTA-Ni beads (cat. #1000630; available from Qiagen GmbH, Germany) and incubated with cell lysates in the presence (FIG. 9) or absence (FIG. 10) of the protease inhibitor PMSF (phenyl methyl sulfonyl fluoride). Lysates from T47D cells were used because this breast tumor cell line is known to overexpress MUC1 and MUC1 ligand(s). T47D cells were cultured then sonicated for 1 minute to lyse the cells. Lysates were mixed with the PSMGFR peptide-presenting beads and incubated on ice with intermittent mixing for 1 hr. As a negative control, an irrelevant peptide, HHHHHHGEFTGTYITAVT (SEQ ID NO: 13), was attached to NTA-Ni beads and treated identically. Both sets of beads were washed 2× with phosphate buffer pH 7.4. Bound protein species were eluted by 3 additions of 100 uL of phosphate buffer that also contained 250 mM imidazole. For both the peptides, a portion of the first elution was removed and reserved to run as a separate sample, while the remainder was combined with the other 2 elutions and concentrated by TCA (tri-chloro acetic acid)-precipitation (Chen, L. et al., Anal. Biochem. Vol 269; pgs 179-188; 1999). […]

Sequence: GTINVHDVETQFNQYKTEAASPYNLTISDVSVSDVPFPFSAQSGAHHHHHH [PSMGFR peptide]
- protein species bound from T47D lysate (in the absence of PMSF, FIG. 10): bound distinguishably to one peptide
- protein species bound from T47D lysate (in the presence of PMSF, FIG. 9): bound distinguishably to three peptides
